From patent publication US9512481B2, “Polymorphisms in the PDE3A gene” (The Regents of the University of Colorado, a body corporate, priority 2009, dated 2016)

How the values were obtained:
[1] = test system: PDE3A promoter; test: PDE3A Ins or Del promoter-luciferase constructs transfected into NRVMs; format: cell-based, rat; details: for promoter response: Del construct with deletion of the CREB binding site (CRE) at −1070, NRVMs; for promoter (transcriptional) activity: NRVMs
[2] = test system: Evi-1 transcription factor mRNA; test: Evi-1 mRNA expression in explanted left ventricular samples from heart failure patients treated with enoximone; format: in vivo, human; details: explanted LV samples from HF patients treated with enoximone; compared to non-failing, no enoximone
[3] = test system: PDE3A mRNA; test: PDE3A mRNA abundance in LVs explanted from end-stage HF patients, by PDE3A promoter Ins/Del genotype; format: in vivo, human
[4] = test system: Evi-1

## CCCC(=O)Nc1ncnc2c1ncn2[C@@H]1O[C@@H]2COP(=O)(O)O[C@H]2[C@H]1OC(=O)CCC [dbcAMP]
[1]
  promoter response: abolishes the promoter response

## CSc1ccc(C(=O)c2[nH]c(=O)[nH]c2C)cc1 [enoximone]
[2]
  mRNA expression of Evi-1: increased
[1]
  promoter response: abolishes the promoter response
[3]; Del carriers (homozygous or heterozygous for PDE3A Del, n=9) treated with enoximone, compared to Del patients not receiving enoximone (n=19), p<0.001
  PDE3A mRNA abundance: 2.1±0.3 fold
[3]; patients homozygous for the Ins (Ins/Ins) treated with enoximone, p=0.7
  PDE3A gene expression: 1.1±0.3 fold

## CC(C)NCC(O)c1ccc(O)c(O)c1 (centres unmarked) [isoproterenol]
[1]; Del PDE3A promoter-luciferase construct (lacks the 29 nucleotide sequence)
  promoter (transcriptional) activity: increased promoter activity
[1]; Ins PDE3A promoter-luciferase construct (29 nucleotide sequence present)
  promoter (transcriptional) activity: does not go up

## Nc1ncnc2c1ncn2[C@@H]1O[C@@H]2COP(=O)(O)O[C@H]2[C@H]1O [cAMP, cyclic AMP]
[4]
  induction of Evi-1: 16 fold
